Data on 34 compounds can be found in patent US11957687B2 (REGENERON PHARMACEUTICALS, INC., priority 2019, dated 2024).

pIC50: −log10 of the molar value. Some results are limits rather than exact numbers.

The target in this experiment is HSD17B13 (Homo sapiens (Human), UniProt Q7Z5P4). Put plainly: HSD17B13 enzymatic inhibition assay (150 nM or 50 nM HSD17B13). The settings on record: 50 nM HSD17B13; read-out: Inhibition of 50 nM of HSD17B13 IC50. The experiment is classed as biochemical.
Sequence of HSD17B13 (Q7Z5P4 other isoform, or with tags, fused parts or gaps): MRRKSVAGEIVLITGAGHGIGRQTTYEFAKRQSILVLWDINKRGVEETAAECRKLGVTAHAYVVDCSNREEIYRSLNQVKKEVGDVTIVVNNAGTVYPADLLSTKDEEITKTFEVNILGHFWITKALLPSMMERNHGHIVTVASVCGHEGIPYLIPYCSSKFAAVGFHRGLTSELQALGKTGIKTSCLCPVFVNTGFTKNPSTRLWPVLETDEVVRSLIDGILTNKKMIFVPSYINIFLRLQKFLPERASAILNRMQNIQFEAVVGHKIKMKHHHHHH

For orientation: pIC50 means the IC50 on a negative log10 scale, so that one unit is a factor of ten. For the compound `COc1ccc2c(c1)CCC(C)C2NC(=O)c1ccc(C(F)(F)F)[nH]c1=O` (stereo not drawn) [Compound 292, N-(6-methoxy-2-methyl-1,2,3,4-tetrahydronaphthalen-l-yl)-2-oxo-6-(trifluoromethyl)-1,2-dihydropyridine-3-carboxamide], the pIC50 was 6.66.
Consider `Cc1ccc2c(c1)CC(C)C2NC(=O)c1ccc(C(F)(F)F)[nH]c1=O` (stereo not shown) [Compound 296, N-(2,5-dimethyl-2,3-dihydro-1H-inden-1-yl)-2-oxo-6-(trifluoromethyl)-1,2-dihydropyridine-3-carboxamide], for which the pIC50 is 6.77.
As for `CCC[C@@H]1C[C@H](NC(=O)c2ccc(C(F)(F)F)[nH]c2=O)C[C@H](CCC)O1` [Compound 303, N-((2R,4R,6S)-2,6-dipropyltetrahydro-2H-pyran-4-yl)-2-oxo-6-(trifluoromethyl)-1,2-dihydropyridine-3-carboxamide], the figure is 5.51.
Then `Cc1ccc2c(c1)[C@H](N)CC[C@H]2NC(=O)c1ccc(C(F)(F)F)[nH]c1=O` [Compound 304, N-((1R,4R)-4-amino-6-methyl-1,2,3,4-tetrahydronaphthalen-1-yl)-2-oxo-6-(trifluoromethyl)-1,2-dihydropyridine-3-carboxamide], with under 5.00; and `Cc1ccc2c(c1)[C@@H](N)CC[C@H]2NC(=O)c1ccc(C(F)(F)F)[nH]c1=O` [Compound 305, N-((1R,4S)-4-amino-6-methyl-1,2,3,4-tetrahydronaphthalen-1-yl)-2-oxo-6-(trifluoromethyl)-1,2-dihydropyridine-3-carboxamide], with 5.11; and `Cc1ccc2sc(C)c(NC(=O)c3ccc(C(F)(F)F)[nH]c3=O)c2c1` [Compound 310, N-(2,5-dimethylbenzo[b]thiophen-3-yl)-2-oxo-6-(trifluoromethyl)-1,2-dihydropyridine-3-carboxamide], with 6.17.
`NCc1cccc2c1CCCC2NC(=O)c1ccc(C(F)(F)F)[nH]c1=O` (stereo not shown) [Compound 313, N-(5-(aminomethyl)-1,2,3,4-tetrahydronaphthalen-1-yl)-2-oxo-6-(trifluoromethyl)-1,2-dihydropyridine-3-carboxamide]: the pIC50 was under 5.00.
For `CC(C)(C)OC(=O)NCCN1Cc2ccccc2C(NC(=O)c2ccc(C(F)(F)F)[nH]c2=O)C1` (stereo not shown) [Compound 314, tert-butyl (2-(4-(2-oxo-6-(trifluoromethyl)-1,2-dihydropyridine-3-carboxamido)-3,4-dihydroisoquinolin-2(1H)-yl)ethyl)carbamate], the pIC50 was 5.26.
Then `O=C(NC1CN(CCOCc2ccccc2)Cc2ccccc21)c1ccc(C(F)(F)F)[nH]c1=O` (stereo not shown) [Compound 315, N-(2-(2-(benzyloxy)ethyl)-1,2,3,4-tetrahydroisoquinolin-4-yl)-2-oxo-6-(trifluoromethyl)-1,2-dihydropyridine-3-carboxamide], with 6.02.
As for `Cc1ccc2c(c1)N(CCOCc1ccccc1)CCC2NC(=O)c1ccc(C(F)(F)F)[nH]c1=O` (stereo not shown) [Compound 316, N-(1-(2-(benzyloxy)ethyl)-7-methyl-1,2,3,4-tetrahydroquinolin-4-yl)-2-oxo-6-(trifluoromethyl)-1,2-dihydropyridine-3-carboxamide], the figure is 5.22; as for `CC(C)(C)OC(=O)N1Cc2ccccc2C(NC(=O)c2ccc(C(F)(F)F)[nH]c2=O)C1` (stereo not shown) [Compound 317, tert-butyl 4-(2-oxo-6-(trifluoromethyl)-1,2-dihydropyridine-3-carboxamido)-3,4-dihydroisoquinoline-2(1H)-carboxylate], 5.39; as for `O=C(NC1c2ccncc2Oc2ccc(O)cc21)c1ccc(C(F)(F)F)[nH]c1=O` (stereo not shown) [Compound 318, N-(7-hydroxy-5H-chromeno[2,3-c]pyridin-5-yl)-2-oxo-6-(trifluoromethyl)-1,2-dihydropyridine-3-carboxamide], 5.14.
Take `COc1ccc2c(c1)C(NC(=O)c1ccc(C(F)(F)F)[nH]c1=O)c1ccncc1O2` (stereo not shown) [Compound 319, N-(7-methoxy-5H-chromeno[2,3-c]pyridin-5-yl)-2-oxo-6-(trifluoromethyl)-1,2-dihydropyridine-3-carboxamide]: the pIC50 is 6.08.
On to `O=C(NC1c2ccncc2Oc2cc(O)ccc21)c1ccc(C(F)(F)F)[nH]c1=O` (stereo not shown) [Compound 320, N-(8-hydroxy-5H-chromeno[2,3-c]pyridin-5-yl)-2-oxo-6-(trifluoromethyl)-1,2-dihydropyridine-3-carboxamide], for which the pIC50 is 6.22.
Turning to `COc1ccc2c(c1)Oc1cccnc1C2NC(=O)c1ccc(C(F)(F)F)[nH]c1=O` (stereo not shown) [Compound 322, N-(7-methoxy-10H-chromeno[3,2-b]pyridin-10-yl)-2-oxo-6-(trifluoromethyl)-1,2-dihydropyridine-3-carboxamide], the pIC50 is 6.52.
For `Cc1cc2c(cn1)C(NC(=O)c1ccc(C(F)(F)F)[nH]c1=O)c1ccccc1O2` (stereo not shown) [Compound 325, N-(3-methyl-10H-chromeno[3,2-c]pyridin-10-yl)-2-oxo-6-(trifluoromethyl)-1,2-dihydropyridine-3-carboxamide], the negative-log IC50 (pIC50) is 6.74.
Consider `Cc1ccc2c(c1)Oc1cccnc1C2NC(=O)c1ccc(C(F)(F)F)[nH]c1=O` (stereo not shown) [Compound 326, N-(7-methyl-10H-chromeno[3,2-b]pyridin-10-yl)-2-oxo-6-(trifluoromethyl)-1,2-dihydropyridine-3-carboxamide], for which the pIC50 is 7.22.
Consider `Cc1cccc2c1C(NC(=O)c1ccc(C(F)(F)F)[nH]c1=O)c1cnccc1O2` (stereo not shown) [Compound 329, N-(9-methyl-10H-chromeno[3,2-c]pyridin-10-yl)-2-oxo-6-(trifluoromethyl)-1,2-dihydropyridine-3-carboxamide], for which the pIC50 is 5.77.
Then `O=C(NC1c2ccccc2Oc2cccnc21)c1ccc(C(F)(F)F)[nH]c1=O` (stereo not shown) [Compound 331, N-(10H-chromeno[3,2-b]pyridin-10-yl)-2-oxo-6-(trifluoromethyl)-1,2-dihydropyridine-3-carboxamide], with 6.22; and `O=C(NC1c2ccccc2Oc2ccncc21)c1ccc(C(F)(F)F)[nH]c1=O` (stereo not shown) [Compound 332, N-(10H-chromeno[3,2-c]pyridin-10-yl)-2-oxo-6-(trifluoromethyl)-1,2-dihydropyridine-3-carboxamide], with 5.89.
As for `O=C(NC1c2ccccc2Oc2cnccc21)c1ccc(C(F)(F)F)[nH]c1=O` (stereo not shown) [Compound 333, N-(5H-chromeno[2,3-c]pyridin-5-yl)-2-oxo-6-(trifluoromethyl)-1,2-dihydropyridine-3-carboxamide], the figure is 6.13; as for `O=C(NC1c2ccccc2Oc2ncccc21)c1ccc(C(F)(F)F)[nH]c1=O` (stereo not shown) [Compound 334, N-(5H-chromeno[2,3-b]pyridin-5-yl)-2-oxo-6-(trifluoromethyl)-1,2-dihydropyridine-3-carboxamide], 5.62; as for `O=C(NC1CCCc2c(CCc3ccccc3)cccc21)c1ccc(C(F)(F)F)[nH]c1=O` (stereo not shown) [Compound 335, 2-oxo-N-(5-phenethyl-1,2,3,4-tetrahydronaphthalen-1-yl)-6-(trifluoromethyl)-1,2-dihydropyridine-3-carboxamide], 5.35.
As for `CCN1CCC(NC(=O)c2ccc(C(F)(F)F)[nH]c2=O)c2ccc(C)cc21` (stereo not shown) [Compound 336, N-(1-ethyl-7-methyl-1,2,3,4-tetrahydroquinolin-4-yl)-2-oxo-6-(trifluoromethyl)-1,2-dihydropyridine-3-carboxamide], the figure is 5.24; as for `CCCN1CCC(NC(=O)c2ccc(C(F)(F)F)[nH]c2=O)c2ccc(C)cc21` (stereo not shown) [Compound 337, N-(7-methyl-1-propyl-1,2,3,4-tetrahydroquinolin-4-yl)-2-oxo-6-(trifluoromethyl)-1,2-dihydropyridine-3-carboxamide], 5.38.
As for `Cc1ccc2c(c1)N(C)CCC2NC(=O)c1ccc(C(F)(F)F)[nH]c1=O` (stereo not shown) [Compound 338, N-(1,7-dimethyl-1,2,3,4-tetrahydroquinolin-4-yl)-2-oxo-6-(trifluoromethyl)-1,2-dihydropyridine-3-carboxamide], the pIC50 was 5.37.
Then `Cc1ccc2c(c1)C(NC(=O)c1ccc(C(F)(F)F)[nH]c1=O)CCN2` (stereo not shown) [Compound 339, N-(6-methyl-1,2,3,4-tetrahydroquinolin-4-yl)-2-oxo-6-(trifluoromethyl)-1,2-dihydropyridine-3-carboxamide], with 5.55; and `CCCC1=Cc2ccc(C)cc2C1NC(=O)c1ccc(C(F)(F)F)[nH]c1=O` (stereo not shown) [Compound 340, N-(6-methyl-2-propyl-1H-inden-1-yl)-2-oxo-6-(trifluoromethyl)-1,2-dihydropyridine-3-carboxamide], with 6.72; and `CCCC1=C(NC(=O)c2ccc(C(F)(F)F)[nH]c2=O)c2ccc(C)cc2C1O` (stereo not shown) [Compound 342, N-(1-hydroxy-6-methyl-2-propyl-1H-inden-3-yl)-2-oxo-6-(trifluoromethyl)-1,2-dihydropyridine-3-carboxamide], with 7.00.
With `CC1=C(NC(=O)c2ccc(C(F)(F)F)[nH]c2=O)c2ccccc2C1=O` [Compound 343, N-(2-methyl-1-oxo-1H-inden-3-yl)-2-oxo-6-(trifluoromethyl)-1,2-dihydropyridine-3-carboxamide], the negative logarithm of the IC50 (pIC50) was 5.20.
Take `CCCC1=C(NC(=O)c2ccc(C(F)(F)F)[nH]c2=O)c2ccc(C)cc2C1=O` [Compound 344, N-(6-methyl-1-oxo-2-propyl-1H-inden-3-yl)-2-oxo-6-(trifluoromethyl)-1,2-dihydropyridine-3-carboxamide]: the pIC50 is 5.65.
Then `O=C(NC1CCCc2c(CO)cccc21)c1ccc(C(F)(F)F)[nH]c1=O` (stereo not shown) [Compound 345, N-(5-(hydroxymethyl)-1,2,3,4-tetrahydronaphthalen-1-yl)-2-oxo-6-(trifluoromethyl)-1,2-dihydropyridine-3-carboxamide], with 5.05.
As for `O=C(NC1CCCc2c(CCO)cccc21)c1ccc(C(F)(F)F)[nH]c1=O` (stereo not shown) [Compound 346, N-(5-(2-hydroxyethyl)-1,2,3,4-tetrahydronaphthalen-1-yl)-2-oxo-6-(trifluoromethyl)-1,2-dihydropyridine-3-carboxamide], the figure is 5.15; as for `Cc1cccc2c1CCCC2NC(=O)c1ccc(C(F)(F)F)[nH]c1=O` (stereo not shown) [Compound 347], under 5.00.
